Type in all cases: cell-based
In assay [1] the test system is HER2 wild-type Ba/F3 cells. Kind of assay: Ba/F3 cell proliferation assay, HER2 wild-type. To be noted: Mus musculus, BaF3, 72 h, Celltiter-Glo cell viability; for GI50: read-out: HER2 WT/BaF3 GI50; for Emax: read-out: HER2 WT/BaF3 Imax %. Here is the method:
(§1) EGFR wild-type Ba/F3 cells (Cobioer, Cat. No. CBP73110) in the logarithmic growth phase were seeded into a 96-well plate at 2.5×10^3 cells/[…] in a growth medium, and HER2 wild-type Ba/F3 cells (Cobioer, Cat. No. CBP73110) or HER2 A775_G776insYVMA mutant Ba/F3 (Cobioer, Cat. No. CBP73184) in the logarithmic growth phase were seeded into a 96-well plate at 5×10^3 cells/100 μL in a growth medium.
(§2) The plates were placed in a cell incubator at 37° C. overnight. The compound diluted in 3-fold gradient with a medium was added to the plates at 100 μL/well the next day. All treatments were performed in triplicate. The plates were cultured in the cell incubator at 37° C. for another 72 h. Celltiter-Glo Luminescent cell viability assay was performed.
(§3) The cell proliferation rate corresponding to each well was calculated according to the following formula: proliferation %=(test compound well G3-GO average value)/(DMSO control well G3 average value -GO average value)×100. According to the corresponding proliferation rate and concentration of each gradient concentration well, a gradient curve of cell proliferation was fitted using Prism Graphpad software, and GI50 (GI50 is defined as the concentration of a compound corresponding to the cell proliferation inhibition rate of 50%) of the compound was calculated.
On the technique in general: Cellular ATP, detected with luciferase, serves as a proxy for viable cell number.

In assay [2] the test system is HER2 A775_G776insYVMA mutant Ba/F3. Kind of assay: Ba/F3 cell proliferation assay, HER2 A775_G776insYVMA mutant. To be noted: Mus musculus, BaF3, 72 h, Celltiter-Glo cell viability; for GI50: read-out: HER2 A775_G776 ins YVMA/BaF3 GI50; for Emax: read-out: HER2 A775_G776 ins YVMA/BaF3 Imax %. As to the method:
as §1, §2, §3

The subject of assay [3] is EGFR wild-type Ba/F3 cells. Put plainly: Ba/F3 cell proliferation assay, EGFR wild-type. Particulars: 72 h, Celltiter-Glo cell viability; for GI50: Mus musculus, BaF3, read-out: EGFR WT/BaF3 GI50. Here is the method:
as §1, §2, §3

This note sets out measurements from patent publication US20250206760A1, “NITROGEN-CONTAINING HETEROCYCLIC COMPOUND, PREPARATION METHOD THEREFOR, AND PHARMACEUTICAL APPLICATION THEREOF” (Jiangsu Hengrui Pharmaceuticals Co., Ltd., priority 2022, published 2025).

On to `C=CC(=O)N1[C@@H]2CC[C@H]1C[C@@H](Oc1ccc3ncnc(Nc4ccc(Oc5ccn6ncnc6c5)c(C)c4)c3c1)C2` [Example 1, 1-(endo-3-((4-((4-([1,2,4]Triazolo[1,5-a]pyridin-7-yloxy)-3-methylphenyl)amino)quinazolin-6-yl)oxy)-8-azabicyclo[3.2.1]octan-8-yl)prop-2-en-1-one], for which, in assay [1], the GI50 turned out to be 4.1 nM and the Emax was 100%. Further, in assay [2], the GI50 is 3.4 nM and the Emax was determined as 100%. Further, in assay [3], the “EGFR WT/BaF3 Imax %” value was found to be 97% and the GI50 is 3740 nM.
Take `C=CC(=O)N1[C@@H]2CC[C@H]1C[C@@H](Oc1ccc3ncnc(Nc4ccc(Oc5ccc6c(c5)ncn6C)c(C)c4)c3c1)C2` [Example 2, 1-(endo-3-((4-((3-Methyl-4-((1-methyl-1H-benzo[d]imidazol-5-yl)oxy)phenyl)amino)quinazolin-6-yl)oxy)-8-azabicyclo[3.2.1]octan-8-yl)prop-2-en-1-one]: in assay [1], the GI50 amounted to 18.9 nM and the Emax stood at 100%. In addition, in assay [2], the GI50 amounted to 24 nM and the Emax came out at 100%. Besides, in assay [3], the “EGFR WT/BaF3 Imax %” value is listed as 99% and the GI50 came to 2300 nM.
With `C=CC(=O)N1[C@@H]2CC[C@H]1C[C@H](Oc1cc3c(Nc4ccc(Oc5ccn6ncnc6c5)c(C)c4)ncnc3cc1OC)C2` [Example 6, 1-(exo-3-((4-((4-([1,2,4]Triazolo[1,5-a]pyridin-7-yloxy)-3-methylphenyl)amino)-7-methoxyquinazolin-6-yl)oxy)-8-azabicyclo[3.2.1]octan-8-yl)prop-2-en-1-one], in assay [1], the GI50 was found to be 25.2 nM and the Emax was 100%. Besides, in assay [2], the GI50 came out at 21.4 nM and the Emax is 100%.
`C=CC(=O)N1[C@@H]2CC[C@H]1C[C@H](Oc1ccc3ncnc(Nc4ccc(Oc5cc6ncnn6cn5)c(C)c4)c3c1)C2` [Example 8, 1-(exo-3-((4-((4-([1,2,4]Triazolo[1,5-c]pyrimidin-7-yloxy)-3-methylphenyl)amino)quinazolin-6-yl)oxy)-8-azabicyclo[3.2.1]octan-8-yl)prop-2-en-1-one]: in assay [1], the GI50 turned out to be 6.3 nM and the Emax was found to be 100%. Also, in assay [2], the GI50 came out at 15.7 nM and the Emax amounted to 100%.
Take `C=CC(=O)N1[C@@H]2CC[C@H]1C[C@H](Oc1ccc3ncnc(Nc4ccc(Oc5ccn6ncnc6c5)c(C)c4)c3c1)C2` [Example 9, 1-(exo-3-((4-((4-([1,2,4]Triazolo[1,5-a]pyridin-7-yloxy)-3-methylphenyl)amino)quinazolin-6-yl)oxy)-8-azabicyclo[3.2.1]octan-8-yl)prop-2-en-1-one]: the GI50 in assay [1] was found to be 13.5 nM; in assay [2], 13.8 nM. Moreover, the Emax in assay [1] and in assay [2] was 100% each time.
Regarding `C=CC(=O)N1[C@@H]2CC[C@H]1C[C@H](Oc1cc3c(Nc4ccc(Oc5ccn6ncnc6c5)c(C)c4F)ncnc3cc1OC)C2` [Example 13, 1-(exo-3-((4-((4-([1,2,4]Triazolo[1,5-a]pyridin-7-yloxy)-2-fluoro-3-methylphenyl)amino)-7-methoxyquinazolin-6-yl)oxy)-8-azabicyclo[3.2.1]octan-8-yl)prop-2-en-1-one], in assay [1], the GI50 was 4.8 nM and the Emax came out at 100%. In addition, in assay [2], the GI50 was 8.2 nM and the Emax came out at 100%.
As to `C=CC(=O)N1[C@@H]2CC[C@H]1C[C@H](Oc1cc3c(Nc4ccc(Oc5ccc6c(c5)ncn6C)c(C)c4F)ncnc3cc1OC)C2` [Example 15, 1-(exo-3-((4-((2-Fluoro-3-methyl-4-((1-methyl-1H-benzo[d]imidazol-5-yl)oxy)phenyl)amino)-7-methoxyquinazolin-6-yl)oxy)-8-azabicyclo[3.2.1]octan-8-yl)prop-2-en-1-one], in assay [1], the GI50 amounted to 14.9 nM and the Emax amounted to 100%. For the same molecule, in assay [2], the GI50 amounted to 19.4 nM and the Emax came to 100%.
`C=CC(=O)N1[C@@H]2CC[C@H]1C[C@@H](Oc1cc3c(Nc4ccc(Oc5ccn6ncnc6c5)c(C)c4)ncnc3cn1)C2` [Example 16, 1-(endo-3-((4-((4-([1,2,4]Triazolo[1,5-a]pyridin-7-yloxy)-3-methylphenyl)amino)pyrido[3,4-d]pyrimidin-6-yl)oxy)-8-azabicyclo[3.2.1]octan-8-yl)prop-2-en-1-one]: the figures for the GI50 in assay [1], in assay [2] and in assay [3] were 9 nM, 15.7 nM and 7350 nM, respectively. The Emax in assay [1] and in assay [2] was 100% throughout. In addition, the “EGFR WT/BaF3 Imax %” value in assay [3] worked out at 73%.
With `C=CC(=O)N1[C@@H]2CC[C@H]1C[C@@H](Oc1cc3c(Nc4ccc(Oc5ccn6ncnc6c5)c(C)c4F)ncnc3cc1OCC)C2` [Example 17, 1-(endo-3-((4-((4-([1,2,4]Triazolo[1,5-a]pyridin-7-yloxy)-2-fluoro-3-methylphenyl)amino)-7-ethoxyquinazolin-6-yl)oxy)-8-azabicyclo[3.2.1]octan-8-yl)prop-2-en-1-one], in assay [1], the GI50 was 5.1 nM and the Emax worked out at 100%. Also, in assay [2], the GI50 was 13.9 nM and the Emax was 100%.
On to `C=CC(=O)N1[C@@H]2CC[C@H]1C[C@H](Oc1ccc3ncnc(Nc4ccc(Oc5ccc6c(c5)ncn6C)c(C)c4F)c3c1)C2` [Example 19, 1-(exo-3-((4-((2-Fluoro-3-methyl-4-((1-methyl-1H-benzo[d]imidazol-5-yl)oxy)phenyl)amino)quinazolin-6-yl)oxy)-8-azabicyclo[3.2.1]octan-8-yl)prop-2-en-1-one], for which, in assay [1], the GI50 was 14.9 nM and the Emax was found to be 100%. In assay [2], the GI50 stood at 27 nM and the Emax was 100%.
Turning to `C=CC(=O)N1[C@@H]2CC[C@H]1C[C@@H](Oc1cc3c(Nc4ccc(Oc5ccn6ncnc6c5)c(C)c4F)ncnc3cn1)C2` [Example 20, 1-(endo-3-((4-((4-([1,2,4]Triazolo[1,5-a]pyridin-7-yloxy)-2-fluoro-3-methylphenyl)amino)pyrido[3,4-d]pyrimidin-6-yl)oxy)-8-azabicyclo[3.2.1]octan-8-yl)prop-2-en-1-one], in assay [1], the GI50 amounted to 13.2 nM and the Emax is 100%. Further, in assay [2], the GI50 was found to be 15.5 nM and the Emax came to 100%. Also, in assay [3], the “EGFR WT/BaF3 Imax %” value is on record as 100% and the GI50 was 3510 nM.
Turning to `C=CC(=O)N1[C@@H]2CC[C@H]1C[C@H](Oc1cc3c(Nc4ccc(Oc5ccn6ncnc6c5)c(C)c4F)ncnc3cn1)C2` [Example 21, 1-(exo-3-((4-((4-([1,2,4]Triazolo[1,5-a]pyridin-7-yloxy)-2-fluoro-3-methylphenyl)amino)pyrido[3,4-d]pyrimidin-6-yl)oxy)-8-azabicyclo[3.2.1]octan-8-yl)prop-2-en-1-one], the values for the GI50 in assay [1], in assay [2] and in assay [3] were 5.3 nM, 10.4 nM and 913 nM, respectively. The Emax in assay [1] and in assay [2] was 100% each time. Besides, the “EGFR WT/BaF3 Imax %” value in assay [3] was determined as 100%.
For the molecule `C=CC(=O)N1[C@@H]2CC[C@H]1C[C@H](Oc1cc3c(Nc4ccc(Oc5ccc6c(c5)ncn6C)c(C)c4F)ncnc3cn1)C2` [Example 27, 1-(exo-3-((4-((2-Fluoro-3-methyl-4-((1-methyl-1H-benzo[d]iimidazol-5-yl)oxy)phenyl)amino)pyrido[3,4-d]pyrimidin-6-yl)oxy)-8-azabicyclo[3.2.1]octan-8-yl)prop-2-en-1-one], in assay [1], the GI50 was determined as 12.5 nM and the Emax was found to be 100%.
As for `C=CC(=O)N1[C@@H]2CC[C@H]1C[C@H](Oc1cc3c(Nc4ccc(Oc5ccc6c(c5)ncn6C)c(C)c4)ncnc3cn1)C2` [Example 28, 1-(exo-3-((4-((3-Methyl-4-((1-methyl-1H-benzo[d]iimidazol-5-yl)oxy)phenyl)amino)pyrido[3,4-d]pyrimidin-6-yl)oxy)-8-azabicyclo[3.2.1]octan-8-yl)prop-2-en-1-one], in assay [1], the GI50 amounted to 18.1 nM and the Emax turned out to be 100%. In addition, in assay [3], the “EGFR WT/BaF3 Imax %” value is on record as −1.76% and the GI50 is over 10000 nM.
With `Cc1cc(Nc2ncnc3ccc(NC4=NC(C)(C)CO4)cc23)ccc1Oc1ccn2ncnc2c1` [Tucatinib, tucatinib, reference compound], in assay [2], the Emax worked out at 100%.
